# In patent publication US20090143441A1, “Combination therapies of Thiazolidinedione analogues” (priority 2006, published 2009):
# Entries after “also recorded” stand apart in the source; their conditions may differ.
# Key:
# [1] = tested on: normal male Sprague-Dawley rats with Medrol-induced hypertension; test: Prevention of Medrol-induced hypertension, mean blood pressure by direct femoral arterial cannulation; format: in vivo; settings: for Mean blood pressure, Fasted: after a 6 hour fast on day 8; for Mean blood pressure, Fasted / Mean blood pressure, Fed: daily dosing, Compound 1 40 mg/kg/day, Medrol 20 mg/kg/day, N=9, * p<0.05 less than Medrol-treated rats; for Mean blood pressure, Fed: fed conditions on day 7
# Protocol: Hypertension was induced in normal male Sprague-Dawley rats by daily dosing with the glucocorticoid methylprednisolone (Medrol) for 8 days. Separate groups of rats received the vehicle (1% carboxymethylcellulose/0.01% Tween 20) by oral gavage and some of both the vehicle-treated and Medrol-treated rats also received daily doses of compound 1 as shown in Table C. Mean blood pressure was measured by direct femoral arterial cannulation under fed conditions on day 7 and after a 6 hour fast on day 8. The data are mean and (SEM) mean blood pressure obtained by direct cannulation. N=9; * p<0.05 less than blood pressure in Medrol-treated rats.
# [2] = target: T1, PPARγ (Homo sapiens, UniProt P37231); test: Commercial PPARγ binding assay (Invitrogen, PPAR-LBD/Fluormone PPAR Green complex); settings: for PPARγ ligand binding (Fluormone displacement signal) / Activation of PPARγ: average (SEM) of three experiments in quadruplicate; for Binding to PPARγ (in words): summary of FIG. 1 and Table B
# T1 construct: purchased Invitrogen Corporation, Carlsbad, Calif
# T1 sequence (P37231 238-503 limits assumed): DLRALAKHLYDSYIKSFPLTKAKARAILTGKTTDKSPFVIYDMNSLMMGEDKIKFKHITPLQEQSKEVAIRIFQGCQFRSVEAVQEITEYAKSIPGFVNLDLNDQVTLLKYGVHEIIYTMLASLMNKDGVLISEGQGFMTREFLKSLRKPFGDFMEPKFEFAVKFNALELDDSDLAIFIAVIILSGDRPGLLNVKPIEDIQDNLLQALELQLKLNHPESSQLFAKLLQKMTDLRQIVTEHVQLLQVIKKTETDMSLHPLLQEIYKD
# Protocol: The ability of several exemplary compounds of the present invention, shown in Table A, to bind to PPARγ was measured using a commercial binding assay (Invitrogen Corporation, Carlsbad, Calif.) that measures the test compounds ability to bind with PPAR-LBD/Fluormone PPAR Green complex. These assays were performed on three occasions with each assay using four separate wells (quadruplicate) at each concentration of tested compound. The data in Table B are average and SEM of three experiments, each of which were performed in quadruplicate on separate days. […] Compounds were added at the concentrations shown, which range from 0.1-100 micromolar.
SMILES,"Mean blood pressure, Fasted [1]","Mean blood pressure, Fed [1]",PPARγ ligand binding (Fluormone displacement signal) ([2]; compound at 1 μM),PPARγ ligand binding (Fluormone displacement signal) ([2]; compound at 3 μM),PPARγ ligand binding (Fluormone displacement signal) ([2]; compound at 10 μM),Activation of PPARγ ([2]; compound at 50 μM),PPARγ ligand binding (Fluormone displacement signal) ([2]; compound at 100 μM),PPARγ ligand binding (Fluormone displacement signal) ([2]; compound at .1 μM),PPARγ ligand binding (Fluormone displacement signal) ([2]; compound at .3 μM),Activation of PPARγ ([2]; compound at 3 μM),Activation of PPARγ ([2]; compound at 10 μM),Activation of PPARγ ([2]; compound at .1 μM),PPARγ ligand binding (Fluormone displacement signal) ([2]; compound at 50 μM),Binding to PPARγ (in words) [2],Activation of PPARγ ([2]; compound at 1 μM),Activation of PPARγ ([2]; compound at 100 μM),Activation of PPARγ ([2]; compound at .3 μM),"Antihypertensive action (in words) ([1]; hypertension generated by treatment with a glucocorticoid, FIG. 2 and Table C)"
"C[C@H]1C[C@@H]2[C@H]([C@@H](O)C[C@@]3(C)[C@H]2CC[C@]3(O)C(=O)CO)[C@@]2(C)C=CC(=O)C=C12 [Medrol, methylprednisolone, reference compound]",122,123,–,–,–,–,–,–,–,–,–,–,–,–,–,–,–,–
CCc1ccc(C(=CC(=O)OC)COc2ccc(CC3SC(=O)NC3=O)cc2)nc1 (centres unmarked) [Compound 11],–,–,232 (12),229 (10),165 (10),128 (30),78 (3),230 (12),227 (9),–,–,–,–,–,–,–,–,–
CCc1ccc(CCOc2ccc(CC3(C)SC(=O)NC3=O)cc2)nc1 (centres unmarked) [Compound 6],–,–,233 (11),223 (7),198 (10),126 (17),99 (12),246 (7),246 (9),–,–,–,–,–,–,–,–,–
CCc1ccc(C(=CC(=O)OC)COc2ccc(CC3SC(=O)NC3=O)cc2)nc1 (centres unmarked) [Compound 3],–,–,203 (15),–,–,88 (6),77 (7),–,221 (10),185 (17),134 (1),226 (17),–,–,–,–,–,–
CCc1ccc([C@@H](O)COc2ccc(CC3SC(=O)NC3=O)cc2)nc1 (some centres unmarked) [Compound 2],–,–,238 (12),–,223 (11),–,136 (11),231 (15),233 (15),236 (13),–,–,162 (8),particularly poor binders to PPARγ; also recorded: PPARγ-sparing compound,–,–,–,–
CCc1ccc([C@H](O)COc2ccc(CC3(C)SC(=O)NC3=O)cc2)nc1 (some centres unmarked) [Compound 9],–,–,–,233 (9),234 (12),189 (19),–,–,–,–,–,237 (5),–,–,239 (13),164 (20),237 (4),–
CCc1ccc(C(=CCO)COc2ccc(CC3SC(=O)NC3=O)cc2)nc1 (centres unmarked) [Compound 13],–,–,–,–,204 (12),148 (23),–,244 (9),243 (10),230 (13),–,–,–,–,229 (20),108 (5),–,–
CCc1ccc(C(=O)COc2ccc(CC3(C)SC(=O)NC3=O)cc2)nc1 (centres unmarked) [Compound 10],–,–,–,234 (3),–,–,93 (3),–,–,–,219 (5),245 (2),126 (3),–,240 (2),–,239 (2),–
CCc1ccc(C(O)COc2ccc(CC3(C)SC(=O)NC3=O)cc2)nc1 (centres unmarked) [Compound 5],–,–,228 (9),226 (8),212 (11),–,106 (7),235 (8),230 (10),–,–,–,132 (12),–,–,–,–,–
CCc1ccc(C(=O)COc2ccc(CC3SC(=O)NC3=O)cc2)nc1 (centres unmarked) [Compound 1],108,108,223 (12),–,–,174 (28),–,–,232 (8),228 (6),207 (13),227 (1),–,particularly poor binders to PPARγ,–,170 (35),–,unexpected antihypertensive action; also recorded: significantly lowered blood pressure
CCc1ccc(C(COc2ccc(CC3SC(=O)NC3=O)cc2)CC(=O)OC)nc1 (centres unmarked) [Compound 12],–,–,–,155 (8),112 (12),80 (2),85 (3),243 (3),–,–,–,–,–,–,198 (6),–,222 (4),–
CCc1ccc(CCOc2ccc(CC3(C)SC(=O)NC3=O)cc2)nc1 (centres unmarked) [Compound 4],–,–,234 (11),224 (15),200 (8),122 (21),91 (11),–,–,–,–,236 (13),–,–,–,–,230 (14),–
CCc1ccc(CCOc2ccc(CC3(C)SC(=O)NC3=O)cc2)nc1 (centres unmarked) [Compound 7],–,–,–,237 (7),210 (9),–,105 (10),249 (9),–,–,–,–,144 (15),–,248 (13),–,246 (5),–
CCc1ccc([C@@H](O)COc2ccc(CC3(C)SC(=O)NC3=O)cc2)nc1 (some centres unmarked) [Compound 8],–,–,–,241 (10),233 (7),–,–,–,–,–,–,237 (6),199 (15),–,239 (5),186 (16),243 (5),–
